Consider four compounds from patent publication US12678448B2, “Polymeric carriers for delivery of therapeutic agents” (priority 2020, dated 2026).

Entries after “also recorded” stand apart in the source; their conditions may differ.

For data set [1], the system named is 4T1.2, CT26, MDA-MB-468 and HCT116 tumor cell lines. The experiment in a line: MTT cytotoxicity of free 5-ASA, DOX and combination, 48 h. The following applies: 5-ASA 0~1 mM, all four cell lines. The data set is classed as cell-based, murine, human. As to the method:
In vitro cytotoxicity. […] Cells were seeded in 96-well plates at a density of 5×10^3 cells/well with 100 μL of complete culture medium (DMEM or RPMI 1640 with 10% FBS and 1% streptomycin/penicillin). […] The absorbances of each well were measured at 590 nm and the cell viability was determined via the following formula: (ODtreated−ODblank)/(ODcontrol−ODblank)×100%.

Data set [2] has as its system PGE2 in CT26 tumor tissue. The data set can be described thus: PGE2 level in tumor tissue, ELISA. Also on record: species or system BALB/c mice. The following applies: mouse, in vivo. As to the method:
(§1) Prostaglandin E2 level analysis. To analyze the levels of prostaglandin E2 (PGE2) production in different cell lines, the cell culture mediums were collected after overnight incubation. To test PGE2 in the tumor tissues, the harvested tumors were homogenized, and the supernatants were obtained after centrifugation. PGE2 in the supernatants was detected using Abcam Prostaglandin E2 ELISA Kit.

For the next data set, the system named is PGE2. The experiment in a line: inhibition of PGE2 production by 5-ASA. The class given is cell-based. As to conditions: 5-ASA concentration 1 mM; read-out: production of PGE2 inhibited. As to the method:
as §1

Data set [3] concerns esophageal squamous cell carcinoma. The following applies: cited from earlier work.
Data set [4] concerns KB cells. The experiment in a line: MTT cytotoxicity of DOX formulations, 30 min treatment then 48 h. The data set is classed as cell-based, human. As to conditions: FASA up to 200 μg/mL. As to the method: In vitro cytotoxicity. Cytotoxicity assay was performed on different cancer cell lines (KB, 4T1.2, CT26, MDA-MB-468 and HCT116). Cells were seeded in 96-well plates at a density of 5×10^3 cells/well with 100 μL of complete culture medium (DMEM or RPMI 1640 with 10% FBS and 1% streptomycin/penicillin).
The cytotoxicity of PASA/DOX and FASA/DOX at a carrier/DOX ratio of 10/1 (w/w) were compared to free DOX and Doxil at various DOX concentrations. FASA control was added to cells at concentrations equivalent to the amounts of carrier in the corresponding DOX formulations. In order to confirm folate-mediated active targeting, free folate (100 μM) was added along with the FASA/DOX micelles. Cells were incubated for 30 min in drug-containing medium and then cultured for another 48 h in fresh medium prior to MTT assay.

Data set [5] deals with 4T1.2 tumor. Also on record: species or system mice. As to conditions: mouse, in vivo, iv. As to the method:
Tissue biodistribution. […] The mice were sacrificed and perfused at 24 h post injection. Tumors and major organs including heart, liver, spleen, lung and kidney were sectioned and observed under the fluorescence microscope (BZ-X710, Japan).

The subject of data set [6] is 4T1.2 tumor. The experiment in a line: in vivo therapeutic study, syngeneic breast cancer model. Also on record: species or system BALB/c mice. The following applies: 4T1.2 model, treatments on day 0, 3, 6, i.v. The text has this:
In vivo therapeutic study. […] Female BALB/c mice (4-6 weeks) were s.c. inoculated with 4T1.2 or CT26 cells (5×10^5 cells per mouse). […] Tumor sizes were monitored every three days following the initiation of the treatment and calculated by the formula: (Length×Width^2)/2. Body weights were also followed as an indication of toxicity. After completion of the experiment, tumor and major organs were collected for hematoxylin and eosin (H&E) staining. Blood samples were collected for biochemical analysis of alanine transaminase (ALT) and aspartate aminotransferase (AST).

Data set [7] is described as follows: toxicity evaluation (body weight, AST/ALT, histology). The class given is in vivo, mice. As to the method:
In vivo therapeutic study. In vivo antitumor efficacy of DOX-loaded PASA and FASA micelles was tested in syngeneic 4T1.2 mouse breast cancer model and CT26 mouse colon cancer model, respectively. Female BALB/c mice (4-6 weeks) were s.c. inoculated with 4T1.2 or CT26 cells (5×10^5 cells per mouse). When the tumor volume reached ~50 mm^3, mice were randomly divided into eight groups (n=5), and treated via tail vein injection with PBS, DOX, 5-ASA+DOX, Doxil, blank PASA micelles, blank FASA micelles, DOX-loaded PASA micelles or DOX-loaded FASA micelles, respectively once every three days for three times (polymer: 50 mg/kg, DOX: 5 mg/kg, 5-ASA: 20 mg/kg). Tumor sizes were monitored every three days following the initiation of the treatment and calculated by the formula: (Length×Width^2)/2. Body weights were also followed as an indication of toxicity. After completion of the experiment, tumor and major organs were collected for hematoxylin and eosin (H&E) staining. Blood samples were collected for biochemical analysis of alanine transaminase (ALT) and aspartate aminotransferase (AST).
Histopathological Analysis. Tumors and major organs including heart, liver, spleen, lung and kidney were excised and fixed in PBS containing 10% formaldehyde after completion of the in vivo therapy study, followed by embedment in paraffin. The paraffin embedded samples were sectioned into slices at 4 μm using an HM 325 Rotary Microtome. The tissue slices were then subjected to H&E staining for histopathological examination under a Zeiss Axiostar plus Microscope (PA, USA).
ALT and AST assessment. Mouse serum was obtained for blood biochemical assessment. ALT and AST were measured by ALT/SGPT or […] liqui-UV assay kit following manufacturer's protocols.

The nature of data set [8]: in vitro DOX release by dialysis. The data set is classed as physicochemical. The following applies: free drug control. As to the method:
In vitro drug release. The release of DOX from DOX-loaded PASA and FASA micelles at different pH was studied using a dialysis method. Briefly, 2 mL of PASA/DOX and FASA/DOX micelles containing 1 mg of DOX and 10 mg of polymer were placed in a dialysis bag (MWCO 3.5 kDa) and immersed into 40 mL of 0.1 M PBS solution containing 0.5% (w/v) Tween 80 at pH 5 and pH 7.4. The experiment was performed in an incubation shaker at 37° C. at 100 rpm. At selected time intervals, 10 μL solution in the dialysis bag and 1 mL medium outside the dialysis bag were withdrawn while same amount of fresh dialysis solution was added for replenishment. The concentration of DOX was examined by fluorescence spectrometry (excitation, 480 nm; emission, 510 to 620 nm). Free DOX was included as control.

The test system of data set [9] is KB cells. The experiment in a line: cellular uptake, fluorescence microscopy and flow cytometry. The data set is classed as cell-based, human. As to the method: Cellular uptake study. KB, 4T1.2, CT26, MDA-MB-468, HCT116 tumor cells and M2 macrophages were seeded to 6-well plates (3×10^5/well), respectively. After overnight incubation, the culture medium was replaced by fresh medium containing free DOX, PASA/DOX and FASA/DOX micelles with or without 100 μM free folate, respectively, at an equivalent DOX concentration of 6 μg/mL (carrier/DOX ratio: 10/1 (w/w)). After incubation for 30 min at 37° C., cells were washed with cold PBS and fixed with PBS containing 4% (w/v) formaldehyde. Nuclei were then stained by DAPI for 5 min. Cells were washed with cold PBS and observed under fluorescence microscope (BZ-X710, Japan).
Cellular uptake of different DOX formulations was also quantified by flow cytometry. KB tumor cells seeded in 6-well plates (3×10^5/well) were treated with various DOX formulations as described above at a DOX concentration of 6 μg/mL. Following incubation at 37° C. for 30 min, cells were washed with cold PBS, fixed in PBS containing 4% (w/v) formaldehyde, and resuspended in 500 μL PBS for flow cytometry analysis with CyAn ADP Analyzer (Beckman Coulter, Inc.). Fluorescence was examined at an excitation wavelength of 480 nm and an emission wavelength of 570 nm. 2×10^4 events were collected for each sample.
On the technique in general: A flow cytometer gives signals particle by particle.

In a further data set the test system is endometrial cancer cells. As to conditions: cited from earlier work.

Regarding `Nc1ccc(O)c(C(=O)O)c1` [5-ASA, 5-aminosalicylic acid], the “anti-proliferation effect / cytotoxicity” value in data set [1] is “did not show any significant anti-proliferation effect; also recorded: minimal cytotoxicity”. Also, the “level of PGE2 in CT26 tumor tissue” value in data set [2] is reported as “minimal effect”. Besides, the inhibition at 1000 µM in the data set with PGE2 was found to be 80%.
For the compound `Cc1ccc(-c2cc(C(F)(F)F)nn2-c2ccc(S(N)(=O)=O)cc2)cc1` [Celecoxib], the “effect on 5-FU antitumor effects” value in data set [3] was “enhances 5-Fluorouracil (5-FU) antitumor effects”.
Turning to `COc1cccc2c1C(=O)c1c(O)c3c(c(O)c1C2=O)C[C@@](O)(C(=O)CO)C[C@@H]3O[C@H]1C[C@H](N)[C@H](O)[C@H](C)O1` [DOX, doxorubicin], the “cytotoxicity (inhibition of cell proliferation)” value in the data set on KB cells [4] is on record as “inhibited the cell proliferation in a dose-dependent manner”. In the data set on 4T1.2 tumor [5], the “DOX fluorescence signals in tumor tissues” value is “low level and scattered DOX fluorescence signals”. In addition, in the data set with 4T1.2 tumor [6], the “antitumor activity (tumor growth)” value was “modest antitumor activity”. Besides, in data set [7] (mouse, in vivo), the body weights entry is on record as “slight decrease in body weights on day 9” and the liver histology entry is recorded as “hepatocellular vacuolation was found”. Moreover, in [7] (versus control group), the “serum levels of AST / ALT” value was “significantly higher than those in the control group”. For the same compound, the “diffusion across the dialysis membrane” value in data set [8] is listed as “rapidly diffused across the dialysis membrane”. In the data set with KB cells [9] (30 min, DOX 6 μg/mL), the cellular uptake result is reported as “efficiently taken up”. In the data set on KB cells [9] (excess free folate 100 μM), the “effect of free folate on cellular uptake” value is given as “no effect”.
Take `CCc1cccc2c3c([nH]c12)C(CC)(CC(=O)O)OCC3` (centres unmarked) [Etodolac]: in the data set with endometrial cancer cells, the “inhibition of cancer cells” value is listed as “dose dependent inhibition of endometrial cancer cells”.
